Tests used:
Assay in all cases: relative viability (nuclei count vs DMSO), 5 days (fraction); higher = more cells survive
Pemetrexed + Bortezomib = compound: Nc1nc2[nH]cc(CCc3ccc(C(=O)N[C@@H](CCC(=O)O)C(=O)O)cc3)c2c(=O)[nH]1 [Pemetrexed] + CC(C)C[C@H](NC(=O)[C@H](Cc1ccccc1)NC(=O)c1cnccn1)B(O)O [Bortezomib] (partner 0.002 µM)
How it was run: (§1)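 Each reported value is a median over duplicate plates. It expresses relative viability: treated-well nuclei count divided by vehicle-well nuclei count. Lung cancer cell lines in 1536-well plates were dosed by pin tool a day after seeding, alone with one drug or with a fixed anchor-drug dose plus five library-drug doses (not always all listed) in √10 steps, and nuclei were counted after 5 days.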

Pemetrexed + Linsitinib = compound: Nc1nc2[nH]cc(CCc3ccc(C(=O)N[C@@H](CCC(=O)O)C(=O)O)cc3)c2c(=O)[nH]1 [Pemetrexed] + C[C@]1(O)C[C@@H](c2nc(-c3ccc4ccc(-c5ccccc5)nc4c3)c3c(N)nccn32)C1 [Linsitinib] (partner 1 µM)
How it was run: as §1

Idelalisib + Palbociclib = compound: CC[C@H](Nc1ncnc2[nH]cnc12)c1nc2cccc(F)c2c(=O)n1-c1ccccc1 [Idelalisib] + CC(=O)c1c(C)c2cnc(Nc3ccc(N4CCNCC4)cn3)nc2n(C2CCCC2)c1=O [Palbociclib] (partner 0.5 µM)
How it was run: as §1

Idelalisib = compound: CC[C@H](Nc1ncnc2[nH]cnc12)c1nc2cccc(F)c2c(=O)n1-c1ccccc1 [Idelalisib]
How it was run: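 Cells of lung cancer lines were placed in 1536-well plates and kept overnight at 37 °C. Pinning then delivered five library-drug doses (not always all listed), spaced by √10, onto plates anchored with vehicle, and the cells were left 5 days without changing medium. One step fixed, permeabilised and stained them with Hoechst, and MetaXpress counted nuclei in 4× images. Viability, as a median over plates, is treated-well nuclei divided by vehicle-well nuclei, with acceptance only at control CV below 25% and at least one doubling.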

Cell Line	relative viability (Pemetrexed + Bortezomib; first compound 0.002 µM)	relative viability (Pemetrexed + Bortezomib; first compound 0.006325 µM)	relative viability (Pemetrexed + Bortezomib; first compound 0.02 µM)	relative viability (Pemetrexed + Bortezomib; first compound 0.06325 µM)	relative viability (Pemetrexed + Bortezomib; first compound 0.2 µM)	relative viability (Pemetrexed + Linsitinib; first compound 0.002 µM)	relative viability (Pemetrexed + Linsitinib; first compound 0.006325 µM)	relative viability (Pemetrexed + Linsitinib; first compound 0.02 µM)	relative viability (Pemetrexed + Linsitinib; first compound 0.06325 µM)	relative viability (Pemetrexed + Linsitinib; first compound 0.2 µM)	relative viability (Idelalisib + Palbociclib; first compound 0.04 µM)	relative viability (Idelalisib + Palbociclib; first compound 0.1265 µM)	relative viability (Idelalisib + Palbociclib; first compound 0.4 µM)	relative viability (Idelalisib + Palbociclib; first compound 1.265 µM)	relative viability (Idelalisib + Palbociclib; first compound 4 µM)	relative viability (Idelalisib; 0.04 µM)	relative viability (Idelalisib; 0.1265 µM)	relative viability (Idelalisib; 0.4 µM)	relative viability (Idelalisib; 1.265 µM)	relative viability (Idelalisib; 4 µM)
NCI-H2126	1.04	1.14	1.19	1.06	1.06	0.696	0.686	0.718	0.692	0.729	0.364	0.369	0.366	0.327	0.358	1.02	1.08	0.837	1.03	0.931
201T	1.05	1.11	1.12	1.09	1.03	1.13	1.01	1.1	1.09	1.01	0.375	0.344	0.322	0.36	0.294	0.985	1.01	0.885	1.06	0.867
HCC-78	0.369	0.436	0.46	0.294	0.322	–	0.384	0.482	0.26	0.18	0.443	0.446	0.411	0.466	0.352	1.05	0.923	0.811	1.01	0.729
SK-LU-1	0.949	1.21	1.3	1.08	1.31	1.01	1.03	1.15	0.951	0.968	0.424	0.408	0.504	0.375	0.348	1.07	1.11	0.866	0.953	0.979
H3255	–	0.834	0.933	0.692	0.572	0.83	0.976	1.04	0.946	0.768	0.33	0.297	0.287	0.35	0.338	1.06	0.946	0.925	0.959	0.879
LOU-NH91	0.515	0.558	0.52	0.467	0.472	0.888	0.852	0.987	0.688	0.598	0.548	0.545	0.629	0.544	0.547	1.07	0.882	0.878	0.762	0.932
NCI-H1666	0.682	0.752	0.875	0.766	0.421	0.71	0.774	0.829	0.73	0.615	0.615	0.6	0.645	0.689	0.645	1.03	1.04	0.911	0.981	0.902
NCI-H2023	0.519	0.912	1.04	0.815	0.304	0.738	0.537	0.693	0.55	0.304	0.368	0.492	0.295	0.295	0.295	1.05	0.973	0.792	0.818	0.968
COR-L 105	0.842	0.704	1.05	0.924	0.783	0.804	0.872	1.05	0.709	1.03	0.431	0.42	0.353	0.424	0.433	1.03	0.997	0.802	0.976	0.752
NCI-H838	0.895	0.708	1.07	0.63	0.208	0.97	0.915	1.21	0.791	0.309	0.207	0.262	0.186	0.213	0.171	0.958	0.993	0.851	0.921	0.753
SW 1573	1.1	0.881	1.11	0.896	1.04	0.794	0.761	0.7	0.752	0.837	0.436	0.376	0.346	0.372	0.255	1.09	0.886	0.896	0.961	0.923

Source: the supplement of paper PMC10307832
